What was measured:
[1] = Wavelength at maximum absorption and molar absorptivity of the cyanine compounds; type: physicochemical
Solubility in solvent = type: physicochemical; conditions: diacetone alcohol, room temperature
Method: Each of cyanine dyes as shown below in Table 2 was dissolved in diacetone alcohol and the solubility was measured at room temperature.

| molar absorptivity (ε) [1] | wavelength at maximum absorption (λmax) ([1]; methanol) | Solubility (g/l) (Solubility in solvent) | wavelength at maximum absorption (λmax) ([1]; diacetone alcohol) | Solubility (Solubility in solvent) | wavelength at maximum absorption (λmax) ([1]; solvent not given) | SMILES |
| --- | --- | --- | --- | --- | --- | --- |
| 160000 L/mol/cm | 790 nm |  |  |  |  | CC1(C)C(=CC=CC=CC=CC2=[N+](CCS(=O)(=O)O)c3cc4c(cc3C2(C)C)OCO4)N(CCS(=O)(=O)O)c2cc3c(cc21)OCO3 [Preparation Example 11] |
|  |  | At least 30 g/l | 695 nm |  |  | CC1(C)C(=CC=CC=CC2=[N+](CCO)c3cc4c(cc3C2(C)C)OCO4)N(CCO)c2cc3c(cc21)OCO3 [Preparation Example 10] |
| 193000 L/mol/cm | 795 nm |  |  |  |  | CCCCN1C(=CC=CC=CC=CC2=[N+](CCCC)c3cc4c(cc3C2(C)C)OC(C)C4)C(C)(C)c2cc3c(cc21)CC(C)O3 (centres unmarked) [Preparation Example 12] |
| 176000 L/mol/cm | 696 nm | At least 30 g/l |  |  |  | CCCCN1C(=CC=CC=CC2=[N+](CCCC)c3cc4c(cc3C2(C)C)OCO4)C(C)(C)c2cc3c(cc21)OCO3 [Preparation Example 1] |
|  | 694 nm |  |  | 30 mg/mL |  | CCN1C(=CC=CC=CC2=[N+](CC)c3cc4c(cc3C2(C)C)OCO4)C(C)(C)c2cc3c(cc21)OCO3 [Preparation Example 2] |
|  | 793 nm |  |  |  |  | COCCN1C(=CC=CC=CC=CC2=[N+](CCOC)c3cc4c(cc3C2(C)C)OCO4)C(C)(C)c2cc3c(cc21)OCO3 [Preparation Example 3] |
| 190000 L/mol/cm |  | At least 30 g/l | 688 nm |  |  | CCCCN1C(=CC=CC=CC2=[N+](CCCC)c3cc4c(cc3C2(C)C)CC(C)O4)C(C)(C)c2cc3c(cc21)OC(C)C3 (centres unmarked) [Preparation Example 5] |
| 194000 L/mol/cm |  | At least 30 g/l | 695 nm |  |  | CCCCN1C(=CC=CC=CC2=[N+](CCCC)c3cc4c(cc3C2(C)C)OC(C)C4)C(C)(C)c2cc3c(cc21)CC(C)O3 (centres unmarked) [Preparation Example 4] |
| 224000 L/mol/cm |  |  | 670 nm |  |  | CCCCN1C(=CC=CC=CC2=[N+](CCCC)c3cc4c(cc3C2(C)C)CCC4)C(C)(C)c2cc3c(cc21)CCC3 [Preparation Example 6] |
| 220000 L/mol/cm |  |  | 672 nm | 30 mg/mL |  | CCOCCN1C(=CC=CC=CC2=[N+](CCOCC)c3cc4c(cc3C2(C)C)CCC4)C(C)(C)c2cc3c(cc21)CCC3 [Preparation Example 7] |
| 228000 L/mol/cm |  |  |  |  | 768 nm | CC(=O)OCCN1C(=CC=CC=CC=CC2=[N+](CCOC(C)=O)c3cc4c(cc3C2(C)C)CCC4)C(C)(C)c2cc3c(cc21)CCC3 [Preparation Example 8] |
|  |  |  |  |  | 768 nm | COCCN1C(=CC=CC=CC=CC2=[N+](CCOC)c3cc4c(cc3C2(C)C)CCC4)C(C)(C)c2cc3c(cc21)CCC3 [Preparation Example 9] |

Reference: patent publication US5087704A, “Cyanine compounds” (Asahi Chemical Co., Ltd., priority 1988, dated 1992)
